In patent EP0441252B1, “Alkaline phosphatase enzymes having improved specific activity for use in indicator reagents” (ABBOTT LABORATORIES, priority 1990, dated 1991):

Tests used:
Experiment in all cases: Kinetic constants (Km) of purified alkaline phosphatase
[1] = molecular target: E. coli alkaline phosphatase variant pMA115, Asp^101 > Ser (Escherichia coli, UniProt P00634, D123S, form not given); conditions: Table 1; substrate not given
[2] = molecular target: E. coli alkaline phosphatase variant pMA116, Lys^328 > Arg / Val^99 > Ala (Escherichia coli, UniProt P00634, form not given/K350R/V121A); conditions: Table 1; substrate not given
[3] = system: O=[N+]([O-])c1ccc(OP(=O)(O)O)cc1; format: biochemical, E. coli; conditions: other: Table 1; substrate not given; pH 8.0; 25.0 °C

Sequence of E. coli alkaline phosphatase variant pMA115, Asp^101 > Ser (P00634 22-471 D123S): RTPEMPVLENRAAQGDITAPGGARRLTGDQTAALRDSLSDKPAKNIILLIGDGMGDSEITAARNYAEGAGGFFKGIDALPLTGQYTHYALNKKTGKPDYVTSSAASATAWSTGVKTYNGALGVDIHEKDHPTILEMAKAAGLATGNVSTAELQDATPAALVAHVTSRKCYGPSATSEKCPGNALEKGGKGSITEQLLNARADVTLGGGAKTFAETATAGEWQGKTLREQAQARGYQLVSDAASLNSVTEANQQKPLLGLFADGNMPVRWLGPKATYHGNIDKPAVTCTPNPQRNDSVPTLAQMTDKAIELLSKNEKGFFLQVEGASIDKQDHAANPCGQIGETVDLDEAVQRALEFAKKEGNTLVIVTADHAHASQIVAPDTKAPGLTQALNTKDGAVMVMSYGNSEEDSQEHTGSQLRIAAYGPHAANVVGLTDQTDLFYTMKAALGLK
Sequence of E. coli alkaline phosphatase variant pMA116, Lys^328 > Arg / Val^99 > Ala (P00634 22-471 K350R/V121A): as the sequence (P00634 22-471 D123S) above, with V100A, S102D, K329R counted along it

| Compound | Km [1] | Km [2] | Km [3] |
| --- | --- | --- | --- |
| O=[N+]([O-])c1ccc(OP(=O)(O)O)cc1 [pNPP, p-nitrophenyl phosphate] | 56 µM | 74 µM |  |
| E. coli alkaline phosphatase variant pMA110, Val^377 > Ala / Ser^415 > Gly (Escherichia coli K-12; S437G/V399A) |  |  | 23 µM |
